One substance from patent US20230140691A1, “OPTICALLY CLEAR, IN-SITU FORMING BIODEGRADABLE NANO-CARRIERS FOR OCULAR THERAPY, AND METHODS USING SAME” (Rowan University, priority 2017, published 2023) can be followed below.

The data set is described as follows: In vitro drug release from PLGA-PEG-PLGA hydrogel in microfluidic devices at physiological flow rate. The note with it: 15 μg HA loaded; for release rate of hyaluronic acid from hydrogel: 35° C.; for amount of HA released: in 10 days. Format: physicochemical. The protocol: The final volume of the hydrogel solution with the compound of interest was constrained to 100 μL because of the anatomical space in the lens capsule. Physiological flow rate (2.4 μl/min) was achieved using microfluidic devices. The devices resemble the anatomical dimensions of both the anterior and posterior chamber of the human eye, as well as the physiological dynamics of the aqueous humor flow. All of the release studies were conducted at 35° C. • a. Dexamethasone (Hydrophobic): 100 μL of PLGA-PEG-PLGA hydrogel solution at 25 (w/v) % was mixed with 100 μg of dexamethasone. The collected samples were analyzed via HPLC. • b. […] The collected samples were analyzed via fluoresce spectroscopy at an excitation, filter, and emission wavelengths (nm) of 483, 515 524, respectively • c. Nucleic acid conjugates (Hydrophilic): 62 μL of nucleic acid conjugates in PBS solution (31 μg) were mixed with 38 μL of hydrogel solution at a concentration of 25 (w/v) %. Because the nucleic acid conjugates were already dissolved in PBS, the hydrogel solution was diluted down to 14 (w/v) %. The collected samples were analyzed via fluorescence spectroscopy at an excitation, filter, and emission wavelengths (nm) of 642, 665, and 670, respectively. • d. Hyaluronic acid (Hydrophilic): 30 μL of hyaluronic acid (HA, 800 KDa) stock solution at a concentration of 0.5 mg/mL in PBS (15 ug of HA) was mixed with 56 μL of hydrogel solution at a concentration of 25 (w/v) %. In addition, 14 μL of PBS were added to diluted the hydrogel solution down to 14 (w/v) %. Samples containing PLL were prepared by adding to the already mentioned composition 10 mg of PLL (10 (w/v) % PLL). The collected samples were analyzed via fluorescence spectroscopy at an excitation, filter, and emission wavelengths (nm) of 483, 495, 518, respectively.

Where [1] appears, read: systems modified with 10 (w/v) % PLL.

As for Hyaluronic acid, where the note is “control systems, no PLL”, the “release rate of hyaluronic acid from hydrogel” value was determined as 0.087 ± 0.044 µg/h and the “amount of HA released” value was 13 µg. Besides, under setting [1], the “release rate of hyaluronic acid from hydrogel” value turned out to be 0.055±0.026 and the “amount of HA released” value turned out to be 11 µg.
